Experimental data reported in patent US5071859A, “N-substituted azaheterocyclic carboxylic acids and pharmaceutical uses” (priority 1988, dated 1991).
Where a name gives a salt, the structure may show the parent alone.

Test system: [^3 H]-GABA uptake
Assay: in vitro inhibition of [^3 H]-GABA uptake (method of Fjalland)
Assay type: biochemical, Male Wistar rat (cortical tissue)
Conditions: rat cortical tissue homogenate; 60 min at 30° C.; pH 7.5; ligand 0.2 nM
Experimental: Male Wistar rat cortical tissue was gently homogenized by hand using a glass/PTFE homogenizer in 10 volumes of 0.32 M sucrose. Incubation was performed in a 40 mM tris HCl buffer (pH 7.5 at 30° C.) containing […], […], 4 mM MgSO4, 2.3 mM CaCl2 and 10 mM glucose, for 60 min. at 30° C. Ligand concentration was 0.2 nM.

SMILES	IC50 [nM]
Cc1ccccc1C(=COCCN1CCC=C(C(=O)O)C1)c1ccccc1C [Example 13, 1-[2-[[2,2-bis(2-Methylphenyl)ethenyl]oxy]ethyl]-1,2,5,6-tetrahydro-3-pyridine carboxylic acid hydrochloride]	26
Cc1ccccc1C(=COCCN1CCC[C@@H](C(=O)O)C1)c1ccccc1Cl [Example 30, (R)-1-[2-[[2-(2-Chlorophenyl)-2-(2-methylphenyl)ethenyl]oxy]ethyl]-3-piperidine carboxylic acid hydrochloride]	12
Cc1ccccc1C(=COCCN1CCC[C@@H](C(=O)O)C1)c1ccc(F)cc1C [Example 14, (R)-1-[2-[[2-(4-Fluoro-2-methylphenyl)-2-(2-methylphenyl)ethenyl]oxy]ethyl]-3-piperidine carboxylic acid hydrochloride]	30
CCc1ccccc1C(=COCCN1CCC=C(C(=O)O)C1)c1ccccc1CC [Example 23, 1-[2-[[2,2-bis(2-Ethylphenyl)ethenyl]oxy]ethyl]-1,2,5,6-tetrahydro-3-pyridine carboxylic acid hydrochloride]	47
O=C(O)[C@@H]1CCCN(CCOC=C(c2ccccc2)c2ccccc2)C1 [Example 2, (R)-1-[2-[[2,2-Diphenylethenyl]oxy]ethyl]-3-piperidine carboxylic acid hydrochloride]	104
O=C(O)[C@@H]1CCCN(CCOCC(c2ccccc2)c2ccccc2)C1 [Example 33, (R)-1-[2-[[2,2-Diphenylethyl]oxy]ethyl]-3-piperidine carboxylic acid]	127
Cc1ccsc1C(=COCCN1CCC[C@@H](C(=O)O)C1)c1sccc1C [Example 12, (R)-1-[2-[[2,2-bis(3-Methyl-2-thienyl)ethenyl]oxy]ethyl]-3-piperidine carboxylic acid]	8
Cc1ccccc1C(=COCCN1CCC[C@@H](C(=O)O)C1)c1ccccc1C [Example 17, (R)-1-[2-[[2,2-bis(2-Methylphenyl)ethenyl]oxy]ethyl]-3-piperidine carboxylic acid hydrochloride]	15

Test system: GABA uptake
Assay: not given
Conditions: oral; cited from earlier work

SMILES	orally active inhibitors of GABA uptake
O=C(O)C1CCCN(CCC=C(c2ccccc2)c2ccccc2)C1 (stereo not shown) [SK&F 89976A, N-(4,4-diphenyl-3-butenyl)nipecotic acid]	orally active inhibitors of GABA uptake
O=C(O)C1=CCCN(CCC=C(c2ccccc2)c2ccccc2)C1 [SK&F 100330A, N-(4,4-diphenyl-3-butenyl)guvacine]	orally active inhibitors of GABA uptake
O=C(O)CC1CCN(CCC=C(c2ccccc2)c2ccccc2)C1 (stereo not drawn) [SK&F 100561, N-(4,4-diphenyl-3-butenyl)homo-β-proline]	orally active inhibitors of GABA uptake
O=C(O)C1CCCN(CCC=C(c2ccccc2)c2cccs2)C1 (stereo not shown) [SK&F 100604J, N-(4-phenyl-4-(2-thienyl)-3-butenyl)nipecotic acid]	orally active inhibitors of GABA uptake

Test system: GABA uptake from the synaptic cleft into presynaptic nerve terminals and glial cells
Assay: not given
Conditions: cited from earlier work

SMILES	inhibitor of GABA uptake from the synaptic cleft
O=C(O)C1CCCNC1 (stereo not shown) [nipecotic acid, piperidine-3-carboxylic acid]	potent inhibitor of GABA uptake
